The results in this text go back to US9376420B2 (YUHAN CORPORATION, priority 2012, dated 2016).

The EC50 is the concentration giving half of the maximal effect. The low end stands for greater potency, the high end for weaker potency.

The target of this test is T1, human LXRβ (Homo sapiens, UniProt P55055).
T1 construct: expressed in transfected cells; host or cells: HEK293 cells (ATCC CRL-1573), transient transfection with pFA-hLXRβ/GAL4 and pUAS
T1 sequence (P55055 222-460 limits assumed): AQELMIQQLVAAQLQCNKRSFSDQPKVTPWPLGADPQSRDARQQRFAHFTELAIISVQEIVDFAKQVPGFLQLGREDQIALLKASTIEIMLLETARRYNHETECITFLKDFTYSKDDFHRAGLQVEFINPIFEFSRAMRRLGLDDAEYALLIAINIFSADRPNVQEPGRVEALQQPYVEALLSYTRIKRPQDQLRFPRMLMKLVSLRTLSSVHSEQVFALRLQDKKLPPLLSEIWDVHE
Nature of the test: Assay for Transcriptional Activity of LXRβ (GAL4-hLXRβ LBD luciferase reporter, transient transfection). Type of test: cell-based. The settings on record: HEK293 cells transfected with pFA-hLXRβ/GAL4 and pUAS, 24 hours; for Emax: fold value in comparison with the control (DMSO-treated group); for EC50: increase of transcriptional activity of LXRβ, average of three independent tests. A digest of the protocol:
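EC50 values, averaged over three independent runs, come from a four-parameter fit of 9-point half-log curves spanning 0.01–50 μM. Luciferase output was read in lysed HEK293 cells 24 h after dosing at 37 °C, following transient transfection with a GAL4-human LXRβ LBD fusion plus GAL4-responsive reporter.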

`CN(CCCS(=O)(=O)c1cccc(-c2ccc(C3CC(C(O)(C(F)(F)F)C(F)(F)F)=NN3c3ccc(F)cc3F)cc2)c1)C(=O)OC(C)(C)C` (stereo not drawn) [Example 395, 5-{3′-[3-(N-BOC-N-methyl-amino)-propane-1-sulfonyl]-biphenyl-4-yl}-1-(2,4-difluoro-phenyl)-3-(di-(trifluoromethyl)-hydroxy-methyl)-4,5-dihydro-1H-pyrazole] returned an Emax of 83 fold and an EC50 of 0.4 nM. Taken in the same sequence, the figures for `CSc1cccc(-c2ccc(C3CC(C(O)(C(F)(F)F)C(F)(F)F)=NN3c3ccc(F)cc3F)cc2)c1` (stereo not drawn) [Example 369, 1-(2,4-difluoro-phenyl)-5-(3′-methylsulfanyl-biphenyl-4-yl)-3-[di-(trifluoromethyl)-hydroxy-methyl]-4,5-dihydro-1H-pyrazole] were 28 fold and 666 nM.

Consider `CS(=O)(=O)c1cccc(-c2ccc(C3CC(C(O)(C(F)(F)F)C(F)(F)F)=NN3c3ccccc3Cl)c(F)c2)c1` (stereo not drawn) [Example 347, 1-(2-chloro-phenyl)-5-(3-fluoro-3′-methanesulfonyl-biphenyl-4-yl)-3-[di-(trifluoromethyl)-hydroxy-methyl]-4,5-dihydro-1H-pyrazole], for which the Emax came out at 62 fold and it took 42 nM to reach a half-maximal effect (EC50). Taken in the same sequence, the figures for `Cn1c(-c2ccc(C3CC(C(O)(C(F)(F)F)C(F)(F)F)=NN3c3ccc(F)cc3F)cc2)cc2ccccc21` (stereo not drawn) [Example 374, 1-(2,4-difluoro-phenyl)-5-[4-(1-methyl-1H-indol-2-yl)-phenyl]-3-[di-(trifluoromethyl)-hydroxy-methyl]-4,5-dihydro-1H-pyrazole] were 60 fold and 678 nM. Consider `COc1ccc(-c2cc(C3CC(C(F)(F)C(F)(F)F)=NN3c3ccc(F)cc3F)ccc2F)cn1` (stereo not drawn) [Example 131, 1-(2,4-difluoro-phenyl)-5-[4-fluoro-3-(6-methoxy-pyridin-3-yl)-phenyl]-3-pentafluoroethyl-4,5-dihydro-1H-pyrazole], for which the Emax is on record as 45 fold and the EC50 turned out to be 12800 nM. `COc1cc(C)c(-c2ccc(C3CC(C(O)(C(F)(F)F)C(F)(F)F)=NN3c3ccccc3Cl)cc2)cn1` (stereo not drawn) [Example 270, 1-(2-chloro-phenyl)-5-[4-(6-methoxy-4-methyl-pyridin-3-yl)-phenyl]-3-[di-(trifluoromethyl)-hydroxy-methyl]-4,5-dihydro-1H-pyrazole] showed an Emax of 48 fold and a concentration for a half-maximal effect (EC50) of 437 nM. Compound `CS(=O)(=O)c1ccc(-c2cccc(C3CC(C(F)(F)C(F)(F)F)=NN3Cc3ccccc3Cl)c2)cc1` (stereo not drawn) [Example 54, 1-(2-chloro-benzyl)-5-(4′-methanesulfonyl-biphenyl-3-yl)-3-pentafluoroethyl-4,5-dihydro-1H-pyrazole] yielded an Emax of 17 fold and an EC50 of 6430 nM.

`C[S+]([O-])c1cccc(-c2ccc(C3CC(C(O)(C(F)(F)F)C(F)(F)F)=NN3c3ccccc3Cl)c(F)c2)c1` (stereo not drawn) [Example 345, 1-(2-chloro-phenyl)-5-(3-fluoro-3′-methanesulfinyl-biphenyl-4-yl)-3-[di-(trifluoromethyl)-hydroxy-methyl]-4,5-dihydro-1H-pyrazole] gave an Emax of 42 fold and an EC50 of 71 nM. For `CS(=O)(=O)c1cccc(-c2ccc(C3CC(C(F)(F)C(F)(F)F)=NN3c3ccccc3Cl)cc2)c1` (stereo not drawn) [Example 5, 1-(2-chloro-phenyl)-5-[3′-(methylsulfonyl)-biphenyl-4-yl]-3-pentafluoroethyl-4,5-dihydro-1H-pyrazole] the same measures were 48 fold and 330 nM. `O=Cc1ccc(-c2cccc(C3CC(C(F)(F)C(F)(F)F)=NN3c3ccc(F)cc3F)c2)nc1` (stereo not drawn) [Example 79, 1-(2,4-difluoro-phenyl)-5-[3-(5-formyl-pyridin-2-yl)-phenyl]-3-pentafluoroethyl-4,5-dihydro-1H-pyrazole] gave an Emax of 46 fold and an EC50 of 747 nM.

For the compound `CN(C)C(=O)N1CC=C(c2ccc(C3CC(C(O)(C(F)(F)F)C(F)(F)F)=NN3c3ccc(F)cc3F)cc2)CC1` (stereo not drawn) [Example 403, 1-(2,4-difluoro-phenyl)-5-[4-(1-dimethylcarbamoyl-1,2,3,6-tetrahydropyridin-4-yl)-phenyl]-3-[di-(trifluoromethyl)-hydroxy-methyl]-4,5-dihydro-1H-pyrazole], the Emax is given as 22 fold and a half-maximal response (EC50) required 1170 nM.

Compound `CS(=O)(=O)c1ccc(-c2cccc(C3CC(C(F)(F)C(F)(F)F)=NN3c3ccc(Cl)cc3Cl)c2)cc1` (stereo not drawn) [Example 41, 1-(2,4-dichloro-phenyl)-5-(4′-methanesulfonyl-biphenyl-3-yl)-3-pentafluoroethyl-4,5-dihydro-1H-pyrazole] returned an Emax of 89 fold and an EC50 of 1660 nM. Taken in the same sequence, the figures for `CC(C)Oc1ccccc1-c1ccc(C2CC(C(O)(C(F)(F)F)C(F)(F)F)=NN2c2ccccc2Cl)cc1F` (stereo not drawn) [Example 367, 1-(2-chloro-phenyl)-5-(2-fluoro-2′-isopropoxy-biphenyl-4-yl)-3-[di-(trifluoromethyl)-hydroxy-methyl]-4,5-dihydro-1H-pyrazole] were 59 fold and 312 nM. Taken in the same sequence, the figures for `OC(C1=NN(c2ccccc2Cl)C(c2ccc(-c3ccc(F)cc3)cc2F)C1)(C(F)(F)F)C(F)(F)F` (stereo not drawn) [Example 344, 1-(2-chloro-phenyl)-5-(3,4′-difluoro-biphenyl-4-yl)-3-[di-(trifluoromethyl)-hydroxy-methyl]-4,5-dihydro-1H-pyrazole] were 53 fold and 989 nM. Taken in the same sequence, the figures for `CN(CCCS(=O)(=O)c1cccc(-c2cccc(N3N=C(C(F)(F)C(F)(F)F)CC3c3ccc(F)cc3F)c2)c1)C(=O)OC(C)(C)C` (stereo not drawn) [Example 211, 5-(2,4-difluoro-phenyl)-1-{3′-[3-(N-BOC-N-methyl-amino)-propane-1-sulfonyl]-biphenyl-3-yl}-3-pentafluoroethyl-4,5-dihydro-1H-pyrazole] were 29 fold and 509 nM.

Compound `CS(=O)(=O)c1ccc(-c2ccc(C3CC(C(O)(C(F)(F)F)C(F)(F)F)=NN3c3ccccc3Cl)s2)cn1` (stereo not drawn) [Example 420, 1-(2-chloro-phenyl)-5-{5-[6-(methylsulfonyl)-pyridin-3-yl]-thiophen-2-yl}-3-[di-(trifluoromethyl)-hydroxy-methyl]-4,5-dihydro-1H-pyrazole] registered an Emax of 80 fold.

In turn, `CC(=O)c1ccc(-c2ccc(C3CC(C(O)(C(F)(F)F)C(F)(F)F)=NN3c3ccccc3Cl)cc2F)cc1` (stereo not drawn) [Example 362, 5-(4′-acetyl-2-fluoro-biphenyl-4-yl)-1-(2-chloro-phenyl)-3-[di-(trifluoromethyl)-hydroxy-methyl]-4,5-dihydro-1H-pyrazole] displayed an Emax of 72 fold and an EC50 of 580 nM.

In the case of `CS(=O)(=O)c1ccc(-c2ccc(F)c(C3CC(C(F)(F)C(F)(F)F)=NN3c3ccc(F)cc3F)c2)cn1` (stereo not drawn) [Example 142, 1-(2,4-difluoro-phenyl)-5-[6-fluoro-3-(6-methanesulfonyl-pyridin-3-yl)-phenyl]-3-pentafluoroethyl-4,5-dihydro-1H-pyrazole], the Emax was found to be 73 fold and the EC50 came to 181 nM. As to `OC(C1=NN(c2ccc(F)cc2F)C(c2ccc(-c3cncc(F)c3)cc2)C1)(C(F)(F)F)C(F)(F)F` (stereo not drawn) [Example 381, 1-(2,4-difluoro-phenyl)-5-[4-(5-fluoro-pyridin-3-yl)-phenyl)-3-[di-(trifluoromethyl)-hydroxy-methyl]-4,5-dihydro-1H-pyrazole], the Emax is given as 50 fold and the EC50 is 448 nM.

Regarding `CS(=O)(=O)N1CC=C(c2ccc(C3CC(C(O)(C(F)(F)F)C(F)(F)F)=NN3c3ccc(F)cc3F)cc2)CC1` (stereo not drawn) [Example 400, 1-(2,4-difluoro-phenyl)-5-[4-(1-methanesulfonyl-1,2,3,6-tetrahydropyridin-4-yl)-phenyl]-3-[di-(trifluoromethyl)-hydroxy-methyl]-4,5-dihydro-1H-pyrazole], the Emax was 38 fold and the concentration giving a half-maximal response (EC50) was 379 nM. Taken in the same sequence, the figures for `CS(=O)(=O)c1ccc(-c2ccc(C3CC(C(O)(C(F)(F)F)C(F)(F)F)=NN3c3ccccc3Cl)cc2)cn1` (stereo not drawn) [Example 335, 1-(2-chloro-phenyl)-5-[4-(6-methanesulfonyl-pyridin-3-yl)-phenyl]-3-[di-(trifluoromethyl)-hydroxy-methyl]-4,5-dihydro-1H-pyrazole] were 94 fold and 136 nM. Taken in the same sequence, the figures for `CSc1ccc(-c2ccc(C3CC(C(O)(C(F)(F)F)C(F)(F)F)=NN3c3ccccc3Cl)s2)cn1` (stereo not drawn) [Example 415, 1-(2-chloro-phenyl)-5-{5-[6-(methylsulfanyl)-pyridin-3-yl]-thiophen-2-yl}-3-[di-(trifluoromethyl)-hydroxy-methyl]-4,5-dihydro-1H-pyrazole] were 100 fold and 346 nM. `CS(=O)(=O)N1CC=C(c2ccc(C3CC(C(O)(C(F)(F)F)C(F)(F)F)=NN3c3ccccc3Cl)cc2)CC1` (stereo not drawn) [Example 298, 1-(2-chloro-phenyl)-5-[4-(1-methanesulfonyl-1,2,3,6-tetrahydropyridin-4-yl)-phenyl]-3-[di-(trifluoromethyl)-hydroxy-methyl]-4,5-dihydro-1H-pyrazole] showed an Emax of 88 fold and an EC50 of 304 nM.
